# Publication PMC8246065 (The EMBO Journal, 2021)
# Experiments:
# [1] = tested on: HeLa inducible NOD1 or NOD2 cells; assay: ELISA of IL6/IL8 in supernatants of HeLa inducible NOD1 or NOD2 cells; type: cell-based, human; settings: for IL6 production upon stressor stimulation: Fig 1A-1D; for IL6 production: lipid 10 µM, Appendix Fig S3E,F; for Effect of inhibitor on IL6 production by cytosolic S1P: inhibitor pretreatment, S1P 10 µM with digitonin (5 µg/ml), Appendix Fig S3A-D; for IL6 production in the presence of dynasore: Fig EV1D,E (S2B-S2E in rebuttal)
# Experimental: (§1) To differentiate THP‐1 into macrophage‐like cells, THP‐1 cells were stimulated with 50 ng/ml phorbol 12‐myristate 13‐acetate (Sigma‐Aldrich, P8139) for 24 h and then incubated with fresh medium for another 48 h. […] To induce NOD1 or NOD2 expression, HeLa NOD1 or NOD2 cells were treated with 0.5 µg/ml or 0.25 µg/ml doxycycline for at least 16 h, respectively. All cells have been checked for mycoplasma contamination regularly. Bone marrow‐derived macrophages (BMDMs) were obtained from tibial and femural bones and generated with DMEM containing 20% L929 cell supernatant, 10% FBS, 5% heat‐inactivated horse serum, 1 mM sodium pyruvate, and 2 mM L‐glutamine. For BMDM stimulation experiments, BMDMs were treated with IFN‐γ (20 ng/ml) overnight before stimulation.
# NOD1 = molecular target: T1, NOD1 (Homo sapiens, UniProt Q9Y239); assay: Microscale thermophoresis (MST) binding to purified NOD1-GFP
# T1 sequence (Q9Y239 1-953): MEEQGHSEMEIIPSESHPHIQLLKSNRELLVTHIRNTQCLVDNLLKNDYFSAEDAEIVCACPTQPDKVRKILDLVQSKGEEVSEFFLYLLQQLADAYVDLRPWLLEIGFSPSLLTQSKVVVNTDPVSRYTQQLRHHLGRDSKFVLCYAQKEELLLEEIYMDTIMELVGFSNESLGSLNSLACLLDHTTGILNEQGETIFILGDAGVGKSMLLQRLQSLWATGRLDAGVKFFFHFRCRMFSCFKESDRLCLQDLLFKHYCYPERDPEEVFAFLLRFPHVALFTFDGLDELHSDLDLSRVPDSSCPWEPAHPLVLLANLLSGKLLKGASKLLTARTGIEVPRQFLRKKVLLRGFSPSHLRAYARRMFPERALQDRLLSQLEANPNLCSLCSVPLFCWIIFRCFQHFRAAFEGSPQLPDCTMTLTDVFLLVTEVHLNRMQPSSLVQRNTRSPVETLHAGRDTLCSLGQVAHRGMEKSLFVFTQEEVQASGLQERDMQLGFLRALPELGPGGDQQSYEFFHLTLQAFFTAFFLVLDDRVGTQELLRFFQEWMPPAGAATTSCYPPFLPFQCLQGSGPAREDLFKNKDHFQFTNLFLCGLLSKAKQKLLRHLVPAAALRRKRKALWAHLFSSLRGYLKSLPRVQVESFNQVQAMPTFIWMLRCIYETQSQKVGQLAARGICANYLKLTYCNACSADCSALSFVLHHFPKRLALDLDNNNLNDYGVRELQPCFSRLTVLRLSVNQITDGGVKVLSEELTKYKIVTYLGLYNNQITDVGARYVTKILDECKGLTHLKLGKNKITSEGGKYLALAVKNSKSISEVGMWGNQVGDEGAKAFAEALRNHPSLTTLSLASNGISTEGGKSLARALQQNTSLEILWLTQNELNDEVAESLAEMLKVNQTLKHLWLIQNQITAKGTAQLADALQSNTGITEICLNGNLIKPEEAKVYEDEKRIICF
# Experimental: (§2) The lysates were incubated with 2 ml GFP‐Trap agarose at 4°C for 4 h. The agarose was collected with Poly‐Prep columns by gravity flow. […] To remove heat shock proteins, columns were further washed with 50 ml wash buffer III (50 mM Tris–HCl, pH 7.5, 150 mM NaCl, 5 mM MgCl2+, 1 mM ATP). To elute the proteins, the agarose was mixed with 2 ml elution buffer (100 mM Glycine, pH 2.5) for 1 min and the eluted proteins were immediately neutralized with 0.2 ml of 1 M Tris, pH 10.5.
# NOD2 = NOD2 (Homo sapiens, UniProt Q9HC29); assay: Microscale thermophoresis (MST) binding to purified NOD2-GFP
# NOD2, sequence (Q9HC29 whole entry): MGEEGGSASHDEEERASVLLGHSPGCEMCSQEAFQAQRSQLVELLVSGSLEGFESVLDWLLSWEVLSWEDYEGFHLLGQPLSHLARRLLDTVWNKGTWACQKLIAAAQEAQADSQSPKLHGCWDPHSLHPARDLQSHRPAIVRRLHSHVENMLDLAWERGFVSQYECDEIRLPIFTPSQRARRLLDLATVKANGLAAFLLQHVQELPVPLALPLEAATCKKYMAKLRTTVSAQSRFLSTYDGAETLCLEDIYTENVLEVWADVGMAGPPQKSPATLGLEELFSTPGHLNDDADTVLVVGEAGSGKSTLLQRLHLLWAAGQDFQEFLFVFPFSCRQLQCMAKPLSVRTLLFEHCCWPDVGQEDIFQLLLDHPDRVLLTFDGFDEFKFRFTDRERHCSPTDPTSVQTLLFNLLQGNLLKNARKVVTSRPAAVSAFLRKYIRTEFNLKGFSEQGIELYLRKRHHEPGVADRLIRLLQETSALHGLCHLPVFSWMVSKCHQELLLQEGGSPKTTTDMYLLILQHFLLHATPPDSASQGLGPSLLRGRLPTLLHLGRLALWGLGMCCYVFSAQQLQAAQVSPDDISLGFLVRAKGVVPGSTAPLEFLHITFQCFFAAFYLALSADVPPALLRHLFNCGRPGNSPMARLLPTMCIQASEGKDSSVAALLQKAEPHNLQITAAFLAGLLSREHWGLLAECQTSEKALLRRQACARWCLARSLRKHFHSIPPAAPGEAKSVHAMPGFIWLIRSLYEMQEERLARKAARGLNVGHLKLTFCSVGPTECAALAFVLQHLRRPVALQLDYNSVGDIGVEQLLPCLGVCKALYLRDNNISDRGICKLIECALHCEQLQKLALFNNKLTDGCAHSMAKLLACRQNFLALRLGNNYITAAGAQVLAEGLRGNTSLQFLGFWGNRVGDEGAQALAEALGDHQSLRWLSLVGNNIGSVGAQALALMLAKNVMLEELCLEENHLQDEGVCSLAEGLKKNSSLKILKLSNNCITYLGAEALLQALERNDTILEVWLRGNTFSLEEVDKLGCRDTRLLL
# Experimental: as §2
# [2] = tested on: HEK293T NOD1/2 KO cells transfected with NOD1 or NOD2 mutants; assay: IL8 ELISA of HEK293T cells transfected with NOD1/NOD2 mutants; type: cell-based, human; settings: for IL8 production in cells expressing LRR-deficient NOD1/2 (NOD1/2∆LRR): 20 µM with digitonin, 20 h
# Experimental: as §1
# The mutagenesis was performed with Q5® site‐directed mutagenesis kit (E0554, NEB) according to the manufacturer's instructions. The primers used in this study were as follows: NOD1 E157A F: 5′‐[…]gcg[…]‐3′, NOD1 E157A R: 5′‐[…]‐3′, NOD1 D161A F: 5′‐[…]gcg[…]‐3′, NOD1 D161A R: 5′‐[…]‐3′, NOD1 D203A F: 5′‐[…]gcg[…]‐3′, D203A R: 5′‐[…]‐3′, L218A F: 5′‐[…]gcg[…]‐3′, L218A R: 5′‐[…]‐3′, R237A F: 5′‐[…]gcg[…]‐3′, R237A R: 5′‐[…]‐3′, H257A F: 5′‐[…]gcg[…]‐3′, H257A R: 5′‐[…]‐3′, E267A F: 5′‐[…]gcg[…]‐3′, E267A R: 5′‐[…]‐3′, H290A F: 5′‐[…]gcg[…]‐3′, H290A R: 5′‐[…]‐3′, E306A F: 5′‐[…]gcg[…]‐3′, E306A R: 5′‐[…]‐3′, K324A F: 5′‐[…]gcg[…]‐3′, K324A R: 5′‐[…]‐3′, K328A F: 5′‐[…]gcg[…]‐3′, K328A R: 5′‐[…]‐3′, R340A F: 5′‐[…]gcg[…]‐3′, R340A R: 5′‐[…]‐3′, R344A F: 5′‐[…]gcg[…]‐3′, R344A R: 5′‐[…]‐3′, R350A F: 5′‐[…]gcg[…]‐3′, R350A R: 5′‐[…]‐3′, D372A F: 5′‐[…]gcg[…]‐3′, D372A R: 5′‐[…]‐3′, R373A F: 5′‐[…]gcg[…]‐3′, R373A R: 5′‐[…]‐3′, R399A F: 5′‐[…]gcg[…]‐3′, R399A R: 5′‐[…]‐3′, D423A F: 5′‐[…]gcg[…]‐3′, D423A R: 5′‐[…]‐3′, R435A F: 5′‐5′‐[…]gcg[…]‐3′, R435A R: 5′‐[…]‐3′, Q484A F: 5′‐[…]gcg[…]‐3′, Q484A R: 5′‐[…]‐3′, L495A F: 5′‐[…]gcg[…]‐3′, L495A R: 5′‐[…]‐3′, E514A F: 5′‐[…]gcg[…]‐3′, E514A R: 5′‐[…]‐3′, H517A F: 5′‐[…]gcg[…]‐3′, H517A R: 5′‐[…]‐3′, L540A F: 5′‐[…]gcg[…]‐3′, L540A R: 5′‐[…]‐3′, F544A F: 5′‐[…]gcg[…]‐3′, and F544A R: 5′‐[…]‐3′.
Molecule,Effect of inhibitor on IL6 production by cytosolic S1P [1],IL6 production in the presence of dynasore ([1]; Dynasore 50 µM),also measured
"C[C@H]1CCC/C=C/[C@@H]2C[C@H](O)C[C@H]2[C@H](O)/C=C/C(=O)O1 [BFA, brefeldin A]",–,–,IL6 production upon stressor stimulation [1]: did not induce IL6 production
CCCCCCCCCCCCC/C=C/[C@@H](O)[C@H](CO)NC(C)=O [C2 ceramide],–,–,IL6 production [1]: did not induce IL6 production
CCCCCCCCCCCCC/C=C/[C@@H](O)[C@H](CO)NC(=O)CCCCCCCCCCCCCCC [C16 ceramide],–,–,Interaction with NOD1 by MST (NOD1; Fig EV5B): not detected; Interaction with NOD2 by MST (NOD2; Fig EV5C): not detected; IL6 production [1]: did not induce IL6 production
Cc1cc(CN)cc(C)c1NC(=O)c1ccc(-c2cc(Cl)ccc2Cl)o1 [CYM50358],failed to block,–,–
O=C(N/N=C/c1ccc(O)c(O)c1)c1cc2ccccc2cc1O [Dynasore],–,–,Effect of endocytosis inhibition on IL6 production in response to stress stimulations ([1]; Dynasore 50 µM): not blocked
CCCCCCCCc1ccc(CCC(N)(CO)CO)cc1 [FTY720],failed to block,–,–
CC(C)(C)S(=O)(=O)c1ccc2nccc(Nc3n[nH]c4ccc(F)cc34)c2c1 [GSK583],abolished,–,–
Cc1nn(C)c2nc(NNC(=O)Nc3c(Cl)cncc3Cl)cc(C(C)C)c12 [JTE013],failed to block,–,–
CC(=O)N[C@@H]1[C@@H](O[C@H](C)C(=O)N[C@@H](C)C(=O)N[C@H](CCC(=O)O)C(N)=O)[C@H](O)[C@@H](CO)O[C@H]1O [MDP],–,impaired,"Binding affinity of NOD2 for MDP in the presence or absence of S1P (NOD2; Fig 6H, S1P 2 µM): not affected; IL8 production in cells expressing LRR-deficient NOD1/2 (NOD1/2∆LRR) [2]: not; IL8 production / activation in HEK293T cells expressing NOD2 1007fs ([2]; 20 µM, 48 h, digitonin): unresponsive"
CC(=O)c1ncc([C@@H](O)[C@H](O)[C@H](O)CO)[nH]1 [THI],higher IL6 production,–,–
CCCCCCCCc1cccc(NC(=O)[C@H](N)COP(=O)(O)O)c1 [VPC23019],failed to block,–,–
CCCCCCc1cccc(NC(=O)[C@H](N)CCP(=O)(O)O)c1 [W146],failed to block,–,–
CCCCC[C@H](CC(=O)NO)C(=O)N[C@H](C(=O)N1CCC[C@H]1CO)C(C)C [actinonin],–,higher IL6 production,–
C=C1[C@@H](C)[C@H]2[C@H](Cc3ccccc3)NC(=O)[C@]23[C@H](OC(C)=O)/C=C/[C@@](C)(O)C(=O)[C@@H](C)C/C=C/[C@H]3[C@@H]1O [cytochalasin D],–,higher IL6 production,–
N[C@H](CCC(=O)N[C@H](CCC[C@H](N)C(=O)O)C(=O)O)C(=O)O [iE-DAP],–,impaired,"Binding affinity of NOD1 for iE-DAP in the presence or absence of S1P (NOD1; Fig 6G, S1P 2 µM): not affected; IL8 production in cells expressing LRR-deficient NOD1/2 (NOD1/2∆LRR) [2]: not; Activation (IL8) of NOD1 K328A or H517A ([2]; Fig EV5H): activated"
CC[C@@]1([C@@H]2O[C@@H]([C@H]3O[C@@](O)(CO)[C@H](C)C[C@@H]3C)C[C@@H]2C)CC[C@H]([C@]2(C)CC[C@]3(C[C@H](O)[C@@H](C)[C@@H]([C@@H](C)[C@@H](OC)[C@H](C)C(=O)O)O3)O2)O1 [monensin],–,–,IL6 production upon stressor stimulation [1]: did not induce IL6 production
COC(=O)Nc1nc2ccc(C(=O)c3cccs3)cc2[nH]1 [nocodazole],–,higher IL6 production,–
CC(=O)O[C@H]1C(=O)[C@@]2(C)[C@H]([C@H](OC(=O)c3ccccc3)[C@]3(O)C[C@H](OC(=O)[C@H](O)[C@@H](NC(=O)c4ccccc4)c4ccccc4)C(C)=C1C3(C)C)[C@]1(OC(C)=O)CO[C@@H]1C[C@@H]2O [paclitaxel],–,higher IL6 production,–
CCCCCCCCCCCCC/C=C/[C@@H](O)[C@@H](N)CO [sphingosine],–,–,IL6 production [1]: did not induce IL6 production
pertussis toxin,failed to block,–,–
